Values of other authors, collected in paper PMC8398847, “Isavuconazole: Thermodynamic Evaluation of Processes Sublimation, Dissolution and Partition in Pharmaceutically Relevant Media” (Molecules, 2021).
Several values for one entry are separate records, joined by “and”; a condition that tells them apart may be missing. Identical values can stand only once.

conditions: 298.15 K; IVZ cluster; ref Table S1 [1]-[16]; cited from earlier work

Row | Structure (SMILES) | sublimation Gibbs energy (Table S1) [kcal/mol] | sublimation enthalpy (Table S1) [kcal/mol]
1 | Fc1ccc(-c2ccc(F)cc2)cc1 [4,4'-difluorobiphenyl] | 7.22 | 21.8
2 | N#Cc1ccc(Br)cc1 [4-Bromobenzonitrile] | 6.81 | 19.3
3 | N#Cc1ccc(F)cc1 [4-Fluorobenzonitrile] | 4.21 | 16.2
4 | Oc1ccc(F)cc1 [4-Fluorophenol] | 4.76 | 17.7
5 | N#Cc1ccc(I)cc1 [4-Iodobenzonitrile] | 7.84 | 21
6 | O=C(O)c1ccc(F)cc1 [4-fluorobenzoic acid] | 8.8 | 22.3
7 | CC(O)(CS(=O)(=O)c1ccc(F)cc1)C(=O)Nc1ccc(C#N)c(C(F)(F)F)c1 (stereo not drawn) [Bicalutamide] | 15.2 | 29.8
8 | CC(C(=O)O)c1ccc(-c2ccccc2)c(F)c1 (stereo not drawn) [Flurbiprofen] | 12.7 | 26.34

same assay, conditions: 298.15 K; bicalutamide cluster; cited from earlier work

Row | Structure (SMILES) | sublimation Gibbs energy (kJ∙mol-1, Table S2) [kJ/mol] | sublimation enthalpy (first kJ∙mol-1 column, Table S2)
9 | Fc1ccc(-c2ccc(F)cc2)cc1 [4,4'-difluorobiphenyl] | 30.2 | 91.2 kJ/mol
10 | CNc1ccc(C(=O)O)cc1 [4-(methylamino)benzoic acid] | 55.3 | 123.9 kJ/mol
11 | N#Cc1ccc(C(=O)O)cc1 [4-Cyanobenzoic acid] | 50.7 | 112.8 kJ/mol
12 | NC(=O)c1ccc(F)cc1 [4-Fluorobenzamide] | 43.2 | 102.8 kJ/mol
13 | O=[N+]([O-])c1ccc(F)cc1 [4-Fluoronitrobenzene] | 18.9 | 70.9 kJ/mol
14 | Oc1ccc(F)cc1 [4-Fluorophenol] | 19.9 | 74.1 kJ/mol
15 | O=C(O)c1ccc(F)cc1 [4-fluorobenzoic acid] | 36.8 | 93.1 kJ/mol
16 | CC(N)=O [Acetamide] | 40.5 | 99.8 kJ/mol
17 | CC(O)(CS(=O)(=O)c1ccc(F)cc1)C(=O)Nc1ccc(C#N)c(C(F)(F)F)c1 (stereo not drawn) [Bicalutamide] | 63.7 | 124.7 kJ/mol
18 | O=C(O)c1cc(-c2ccc(F)cc2F)ccc1O [Diflunisal (Form A), Diflunisal] | 57.6 | 120.1 kJ/mol
19 | O=C(O)c1ccccc1Nc1cccc(C(F)(F)F)c1 [Flufenamic acid] | 54.3 | 121.2 kJ/mol
20 | Cc1cccc(Nc2ccccc2C(=O)O)c1C [Mefenamic Acid] | 59.2 | 136.3 kJ/mol
21 | CC(=O)Nc1ccccc1C [N-(2-methylphenyl)acetamide] | 40.9 | 97.1 kJ/mol
22 | CC12CC3CC(C)(C1)CC(NS(=O)(=O)c1ccc(C(F)(F)F)cc1)(C3)C2 [N-(3,5-Dimethyl-adamantan-1-yl)-4-trifluoromethyl-benzenesulfonamide] | 49.6 | 107.7 kJ/mol
23 | CC(=O)Nc1ccc(C)cc1 [N-(4-methylphenyl)acetamide] | 44.5 | 99 kJ/mol
24 | CC(=O)Nc1cccc2ccccc12 [N-acetyl-1-naphthylamine] | 47.9 | 94 kJ/mol and 94.1 kJ/mol
